Measurements taken from patent publication US8354436B2 (4SC Discovery GmbH, priority 2011, dated 2013).
pIC50: −log10 of the molar value. Read-outs that look alike come from different tables or passages of the source.

Legend:
Type in all cases: cell-based
Conditions in all cases: 48 hours
[1] = tested on: IL-17FF; assay: IL-17FF production by PHA-stimulated human PBMC (human IL-17F ELI-Pair)
Summary of the method: (§1)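 Healthy-donor PBMC (1×10^5 cells/well) were activated with 2 μg/ml PHA and cultured with test compounds for 48 hours; cytokines were then quantified in supernatants by the respective immunoassay. Screening used 10, 1, 0.1 and 0.01 μM; IC50 came from semilogarithmic compound titration.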

[2] = tested on: IFN-γ; assay: IFN-γ production by PHA-stimulated human PBMC (OptEIA human IFN-g ELISA)
Summary of the method: as §1

[3] = tested on: PBMC from healthy human donors; assay: T cell proliferation assay (PHA-stimulated human PBMC, BrdU ELISA)
Summary of the method: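 Proliferation was quantified by BrdU ELISA 48 hours after starting culture of 1×10⁵ human PBMC per well with test compound and 2 μg/ml phytohaemagglutinin. Cells came from healthy donors via Ficoll separation and were kept in RPMI1640 with 10% dialysed heat-inactivated FCS.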

[4] = PHA-stimulated human PBMC, column B, read-out: IC50 (IL-17FF)
[5] = PHA-stimulated human PBMC, column C, read-out: IC50 (IFNγ)
[6] = PHA-stimulated human PBMC, column D, read-out: IC50 (Tcell proliferation)
[7] = human PBMC, 2 μg/ml PHA, read-out: B: IC50 (IL-17FF)
[8] = human PBMC, 2 μg/ml PHA, read-out: C: IC50 (IFNγ)
[9] = human PBMC, 2 μg/ml PHA, read-out: D: IC50 (Tcell proliferation)

Compound	pIC50 [1, 4]	pIC50 [2, 5]	pIC50 [1, 7]	pIC50 [2, 8]	pIC50 [3, 6]	pIC50 [3, 9]
Fc1cccc(Cl)c1-c1noc(-c2cnn(-c3cccnc3)c2C(F)(F)F)c1-c1nnco1 [Example B-15, 2-(3-(2-chloro-6-fluorophenyl)-5-(1-(pyridin-3-yl)-5-(trifluoromethyl)-1H-pyrazol-4-yl)isoxazol-4-yl)-1,3,4-oxadiazole]			6.00 to 7.00	6.00 to 7.00		6.00 to 7.00
COC(=O)c1c(-c2c(Cl)cccc2Cl)noc1-c1cnn(-c2cccc(F)c2)c1C(F)(F)F [Example I-109, methyl 3-(2,6-dichlorophenyl)-5-(1-(3-fluorophenyl)-5-(trifluoromethyl)-1H-pyrazol-4-yl)isoxazole-4-carboxylate]	> 8.00	> 8.00			> 8.00	
O=C(c1c(-c2c(F)cccc2Cl)noc1-c1cnn(-c2cccc(F)c2)c1C(F)(F)F)N1CCCO1 [Example I-118, (3-(2-chloro-6-fluorophenyl)-5-(1-(3-fluorophenyl)-5-(trifluoromethyl)-1H-pyrazol-4-yl)isoxazol-4-yl)(isoxazolidin-2-yl)methanone]	7.00 to 8.00	7.00 to 8.00			7.00 to 8.00	
COCCn1ncc(-c2onc(-c3c(F)cccc3Cl)c2C(=O)OC)c1C(F)(F)F [Example I-102, methyl 3-(2-chloro-6-fluorophenyl)-5-(1-(2-methoxyethyl)-5-(trifluoromethyl)-1H-pyrazol-4-yl)isoxazole-4-carboxylate]	5.00 to 6.00	5.00 to 6.00			6.00 to 7.00	
CCOC(=O)c1c(-c2onc(-c3c(F)cccc3Cl)c2C(=O)OC)cnn1-c1ccccc1F [Example I-41, methyl 3-(2-chloro-6-phenyl)-5-(5-(ethoxycarbonyl)-1-(2-fluorophenyl)-1H-pyrazol-4-yl)isoxazole-4-carboxylate]	6.00 to 7.00	6.00 to 7.00			6.00 to 7.00	
N#Cc1c(-c2c(F)cccc2Cl)noc1-c1cnn(-c2cccc(F)c2)c1C(F)(F)F [Example I-120, 3-(2-chloro-6-fluorophenyl)-5-(1-(3-fluorophenyl)-5-(trifluoromethyl)-1H-pyrazol-4-yl)isoxazole-4-carbonitrile]	6.00 to 7.00	6.00 to 7.00			6.00 to 7.00	
Fc1ccccc1-n1ncc(-c2onc(-c3c(F)cccc3Cl)c2-c2nnco2)c1C(F)(F)F [Example 15, 2-(3-(2-chloro-6-fluorophenyl)-5-(1-(2-fluorophenyl)-5-(trifluoromethyl)-1H-pyrazol-4-yl)isoxazol-4-yl)-1,3,4-oxadiazole]			6.00 to 7.00	6.00 to 7.00		6.00 to 7.00
Cc1nnc(-c2c(-c3c(F)cccc3Cl)noc2-c2cnn(-c3ccccn3)c2C(F)(F)F)o1 [Example B-26, 2-(3-(2-chloro-6-fluorophenyl)-5-(1-(pyridin-2-yl)-5-(trifluoromethyl)-1H-pyrazol-4-yl)isoxazol-4-yl)-5-methyl-1,3,4-oxadiazole]			7.00 to 8.00	7.00 to 8.00		6.00 to 7.00
O=C(NCc1ccccc1C(F)(F)F)c1c(-c2c(F)cccc2Cl)noc1-c1cnn(-c2ccccc2F)c1C(F)(F)F [Example I-23, 3-(2-chloro-6-fluorophenyl)-5-(1-(2-fluorophenyl)-5-(trifluoromethyl)-1H-pyrazol-4-yl)-N-(2-(trifluoromethyl)ben-zyl)isoxazole-4-carboxamide]	5.00 to 6.00	6.00 to 7.00			5.00 to 6.00	
Cc1nnc(-c2c(-c3c(F)cccc3Cl)noc2-c2cnn(-c3cccc(Cl)c3)c2C(F)(F)F)s1 [Example B-3, 3-(2-chloro-6-fluorophenyl)-5-(1-(3-chlorophenyl)-5-(trifluoromethyl)-1H-pyrazol-4-yl)-4-(5-methyl-1,3,4-thiadiazol-2-yl)isoxazole]			> 8.00	> 8.00		> 8.00

Continued, in another order:

pIC50 [1, 4]	pIC50 [2, 5]	pIC50 [1, 7]	pIC50 [2, 8]	Compound	pIC50 [3, 6]	pIC50 [3, 9]
6.00 to 7.00	6.00 to 7.00			COC(=O)c1c(-c2c(F)cccc2Cl)noc1-c1cnn(-c2cccc(F)c2)c1 [IB-21, methyl 3-(2-chloro-6-fluorophenyl)-5-(1-(3-fluorophenyl)-1H-pyrazol-4-yl)isoxazole-4-carboxylate]	6.00 to 7.00	
> 8.00	> 8.00			CC(C)OC(=O)c1c(-c2c(F)cccc2Cl)noc1-c1cnn(-c2cccc(Cl)c2)c1C(F)(F)F [IB-31, isopropyl 3-(2-chloro-6-fluorophenyl)-5-(1-(3-chlorophenyl)-5-(trifluoromethyl)-1H-pyrazol-4-yl)isoxazole-4-carboxylate]	> 8.00	
6.00 to 7.00	6.00 to 7.00			Nc1c(-c2c(F)cccc2Cl)noc1-c1cnn(-c2cccc(Cl)c2)c1C(F)(F)F [IB-36, 3-(2-chloro-6-fluorophenyl)-5-(1-(3-chlorophenyl)-5-(trifluoromethyl)-1H-pyrazol-4-yl)isoxazol-4-amine]	6.00 to 7.00	
7.00 to 8.00	7.00 to 8.00			CC(C)OC(=O)c1c(-c2c(F)cccc2Cl)noc1-c1cnn(-c2ccncc2)c1C(F)(F)F [IB-82, isopropyl 3-(2-chloro-6-fluorophenyl)-5-(1-(pyridin-4-yl)-5-(trifluoromethyl)-1H-pyrazol-4-yl)isoxazole-4-carboxylate]	7.00 to 8.00	
7.00 to 8.00	6.00 to 7.00			CC(=O)Nc1cccc(-n2ncc(-c3onc(-c4c(F)cccc4Cl)c3C(=O)OC(C)C)c2C(F)(F)F)c1 [IB-78, isopropyl 5-(1-(3-acetamidophenyl)-5-(trifluoromethyl)-1H-pyrazol-4-yl)-3-(2-chloro-6-fluorophenyl)isoxazole-4-carboxylate]	6.00 to 7.00	
6.00 to 7.00	6.00 to 7.00			Fc1ccc(-n2ncc(-c3onc(-c4c(F)cccc4Cl)c3Br)c2C(F)(F)F)cc1 [IB-28, 4-bromo-3-(2-chloro-6-fluorophenyl)-5-(1-(4-fluorophenyl)-5-(trifluoromethyl)-1H-pyrazol-4-yl)isoxazole]	6.00 to 7.00	
5.00 to 6.00	6.00 to 7.00			CCOC(=O)c1c(-c2c(Cl)cncc2Cl)noc1-c1cnn(-c2ccccn2)c1C(F)(F)F [IB-5, ethyl 3-(3,5-dichloropyridin-4-yl)-5-(1-(pyridin-2-yl)-5-(trifluoromethyl)-1H-pyrazol-4-yl)isoxazole-4-carboxylate]	5.00 to 6.00	
7.00 to 8.00	> 8.00			CC(C)OC(=O)c1c(-c2c(F)cccc2Cl)noc1-c1cnn(-c2cccnc2)c1C(F)(F)F [IB-61, isopropyl 3-(2-chloro-6-fluorophenyl)-5-(1-(pyridin-3-yl)-5-(trifluoromethyl)-1H-pyrazol-4-yl)isoxazole-4-carboxylate]	7.00 to 8.00	
5.00 to 6.00	5.00 to 6.00			Fc1ccc(-n2ncc(-c3onc(-c4c(F)cccc4Cl)c3Br)c2C(F)(F)F)c(F)c1 [IB-24, 4-bromo-3-(2-chloro-6-fluorophenyl)-5-(1-(2,4-difluorophenyl)-5-(trifluoromethyl)-1H-pyrazol-4-yl)isoxazole]	5.00 to 6.00	
> 8.00	> 8.00			CCOC(=O)c1c(-c2ccccc2Cl)noc1-c1cnn(-c2cccc(Cl)c2)c1C(F)(F)F [IB-41, ethyl 3-(2-chlorophenyl)-5-(1-(3-chlorophenyl)-5-(trifluoromethyl)-1H-pyrazol-4-yl)-isoxazole-4-carboxylate]	7.00 to 8.00	
